Earlier results in publication PMC3838783 (Applied Biochemistry and Biotechnology, 2013).

System: rats

CC(=O)NO [acetohydroxyamic acid]
Teratogenicity: teratogenic
